Test results as given in patent US10874743B2, “IRAK degraders and uses thereof” (Kymera Therapeutics, Inc., priority 2017, dated 2020).

Molecular target: T1, IRAK4 (Homo sapiens, UniProt Q9NWZ3)
T1 sequence (Q9NWZ3 1-460): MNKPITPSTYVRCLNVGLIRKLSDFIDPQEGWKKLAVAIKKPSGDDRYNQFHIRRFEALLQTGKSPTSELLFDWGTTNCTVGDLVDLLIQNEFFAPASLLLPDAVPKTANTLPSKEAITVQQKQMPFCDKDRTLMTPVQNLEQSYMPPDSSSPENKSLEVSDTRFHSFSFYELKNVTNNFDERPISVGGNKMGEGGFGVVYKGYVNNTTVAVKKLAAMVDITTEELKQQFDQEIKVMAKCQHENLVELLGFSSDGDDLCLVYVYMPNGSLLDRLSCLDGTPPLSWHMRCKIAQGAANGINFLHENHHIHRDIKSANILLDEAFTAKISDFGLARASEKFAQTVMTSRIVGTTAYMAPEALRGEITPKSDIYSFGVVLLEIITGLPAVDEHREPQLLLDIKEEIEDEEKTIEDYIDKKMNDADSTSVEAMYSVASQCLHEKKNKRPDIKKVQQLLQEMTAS
Experiment: OCI-LY-10 degradation assay (western blot, % IRAK4 degraded after 4 hours)
Format: cell-based
Design: endogenous in cells; host or cells: OCI-LY10
Settings: OCI-LY10 cells, IRAK4 degraded after 4 hours, western blot
Protocol: Compounds were reconstituted in DMSO to make stock solutions at concentration of 60 mM. THP-1 and OCI-LY10 cells were maintained in RPMI-1640 medium containing 10% FBS, 0.5 μM 2-ME or 20% FBS, 55 μM 2-ME, and 1% L-Glutamine respectively.
Cells were seeded into 6-well plates with 5e6 cells per well. 200 μL of diluted compounds were added to cells to the final concentration of 0.003-10 μM. After 4 or 24 hour-incubation at 37° C., cells were collected into 2 mL Eppendorf tubes and centrifuged at 1,000 rpm for 5 min. The cell pellets were washed with 1×DPBS once and resuspended in 60 μL lysis buffer. The cells were lysed on ice for 10 min, then centrifuged at 14,000 rpm for 10 min at 4° C. and the supernatants were collected for western blots. For THP-1 cells, the lysis buffer contained 40 mM pH 7.4 HEPES, 140 mM NaCl, 2.5 mM EDTA, 1% NP-40, 0.1% SDS, and protease inhibitor cocktail (Roche, Cat. No. 05892791001). For OCI-LY10 cells, RIPAbuffer (Thermo Fisher, 89900) with Halt Protease and Phosphatase Inhibitor Cocktail (Thermo Fisher, 78446) was applied.
The protein concentration of cell lysates was quantified with Pierce™ BCA Protein Assay Kit (Pierce, 23227). Albumin standards at different concentrations were prepared, involving 2,000 ug/mL, 1,500 ug/mL, 1,000 ug/mL, 750 ug/mL, 500 ug/mL, 250 ug/mL, 125 ug/mL, and 25 ug/mL. BCA working reagents were prepared by mixing BCA reagent A with reagent B in 50:1 ratio. 200 μL of the BCA working reagents were added to 25 μL of BCA standard or cell lysates in microplate, and mixed thoroughly on a plate shaker for 30 seconds. After incubation at 37° C. for 30 min, the absorbance of samples at 562 nm were measured with EnVision Plate Reader.
Protein lysates were prepared in NuPAGE™ LDS sample buffer and NuPAGE™ sample reducing agent, and incubated at 95° C. for 5 min. For western blots, 20-25 μg of total proteins were resolved in 4-12% Bis-Tris gels (Introgen, WG1403A) or 10% Bis-Tris Midi gels (Invitrogen, WG1202BOX) running with 1×MOPS SDS running buffer (Invitrogen, NP0001) or 1×MES SDS running buffer (Invitrogen, NP0002). The proteins were transferred to low fluorescence PVDF membranes using the Trans-Blot Turbo Transfer System. Membranes were then blocked in Odyssey blocking buffer at RT for 1 h followed by primary incubation at 4° C. overnight. The primary antibodies were IRAK1 rabbit monoclonal antibody (CST, #4504S, 1:500), IRAK3 rabbit polyclonal antibody (CST, #4369, 1:500), IRAK4 rabbit polyclonal antibody (CST, #4363S, 1:1,000), MyD88 rabbit monoclonal antibody (Abcam, Ab133739, 1:2,000), j3-actin mouse monoclonal antibody (Sigma, A5441, 10,000), and Gapdh mouse monoclonal antibody (Millipore, MAB374, 1:5,000). Membranes were washed three times with 1×TBST, and then incubated with IR Dye 800 CW Goat anti-rabbit (Licor, #926-32211) and IR Dye 700 CW Goat anti-mouse (Licor, #926-68070) secondary antibodies in 1:10,000 dilution at RT for 1 h. The western blot images were obtained using Odyssey Imaging System.
OCI-LY-10 results at 4 hours. The letter codes indicate the percentage of IRAK4 degraded after 4 hours: A (>50% degradation), B (>20-50% degradation) and C (<20% degradation)
OCI-LY-10 results at 4 hours. The letter codes for % IRAK4 degradation indicate the percentage of IRAK4 degraded after 4 hours across three different concentrations: A (>50% degradation), B (>20-50% degradation) and C (<20% degradation).

Structure (SMILES)	OCI-LY10 % IRAK4 Degradation
O=C(COc1cccc2c1C(=O)N(C1CCC(=O)NC1=O)C2=O)NCCCCNC(=O)[C@H]1CC[C@H](NC(=O)c2cnc(Nc3ccc4cnccc4n3)cc2NC2CC2)CC1 (stereo partly shown) [I-9]	C (<20% degradation)
N#Cc1cnc2c(cnn2-c2cc(NC3CC3)c(C(=O)N[C@H]3CC[C@H](C(=O)NCCOCCOCCOCCNC(=O)COc4cccc5c4C(=O)N(C4CCC(=O)NC4=O)C5=O)CC3)cn2)c1 (stereo partly shown) [I-17]	C (<20% degradation)
N#Cc1cnc2c(cnn2-c2cc(NC3CC3)c(C(=O)N[C@H]3CC[C@H](COCCOCCOCCOCCNC(=O)COc4cccc5c4C(=O)N(C4CCC(=O)NC4=O)C5=O)CC3)cn2)c1 (stereo partly shown) [I-18]	B (>20-50% degradation)
N#Cc1cnc2c(cnn2-c2cc(NC3CC3)c(C(=O)N[C@H]3C[C@H](C(=O)NCCOCCOCCOCCOCCNc4cccc5c4C(=O)N(C4CCC(=O)NC4=O)C5=O)C3)cn2)c1 (stereo partly shown) [I-21, 6-(5-cyano-1H-pyrazolo[3,4-b]pyridin-1-yl)-4-(cyclopropylamino)-N-((1r,3r)-3-((14-((2-(2,6-dioxopiperidin-3-yl)-1,3-dioxoisoindolin-4-yl)amino)-3,6,9,12-tetraoxatetradecyl)carbamoyl)cyclobutyl)nicotinamide]	C (<20% degradation)
N#Cc1cnc2c(cnn2-c2cc(NC3CC3)c(C(=O)N[C@H]3CC[C@H](C(=O)NCCOCCOCCOCCOCCNc4cccc5c4C(=O)N(C4CCC(=O)NC4=O)C5=O)CC3)cn2)c1 (stereo partly shown) [I-22, 6-(5-cyano-1H-pyrazolo[3,4-b]pyridin-1-yl)-4-(cyclopropylamino)-N-((1r,4r)-4-((14-((2-(2,6-dioxopiperidin-3-yl)-1,3-dioxoisoindolin-4-yl)amino)-3,6,9,12-tetraoxatetradecyl)carbamoyl)cyclohexyl)nicotinamide]	C (<20% degradation)
O=C1CCC(N2C(=O)c3cccc(NCCOCCOCCNC(=O)[C@H]4C[C@H](NC(=O)c5cnc(Nc6ccc7cnccc7n6)cc5NC5CC5)C4)c3C2=O)C(=O)N1 (stereo partly shown) [I-26, 6-((1,6-naphthyridin-2-yl)amino)-4-(cyclopropylamino)-N-((1r,3r)-3-((2-(2-(2-((2-(2,6-dioxopiperidin-3-yl)-1,3-dioxoisoindolin-4-yl)amino)ethoxy)ethoxy)ethyl)carbamoyl)cyclobutyl)nicotinamide]	C (<20% degradation)
N#Cc1cnc2c(cnn2-c2cc(NC3CC3)c(C(=O)N[C@H]3C[C@H](C(=O)NCCOCCOCCNc4cccc5c4C(=O)N(C4CCC(=O)NC4=O)C5=O)C3)cn2)c1 (stereo partly drawn) [I-27, 6-(5-cyano-1H-pyrazolo[3,4-b]pyridin-1-yl)-4-(cyclopropylamino)-N-((1R,3R)-3-((2-(2-(2-((2-(2,6-dioxopiperidin-3-yl)-1,3-dioxoisoindolin-4-yl)amino)ethoxy)ethoxy)ethyl)carbamoyl)cyclobutyl)nicotinamide]	C (<20% degradation)
O=C1CCC(N2C(=O)c3cccc(NCCOCCOCCOC[C@H]4C[C@H](NC(=O)c5cnc(Nc6ccc7cnccc7n6)cc5NC5CC5)C4)c3C2=O)C(=O)N1 (stereo partly shown) [I-31]	C (<20% degradation)
N#Cc1cnc2c(cnn2-c2cc(NC3CC3)c(C(=O)N[C@H]3CC[C@H](COCCOCCOCCNc4cccc5c4C(=O)N(C4CCC(=O)NC4=O)C5=O)CC3)cn2)c1 (stereo partly shown) [I-32]	C (<20% degradation)
N#Cc1cnc2c(cnn2-c2cc(NC3CC3)c(C(=O)N[C@H]3CC[C@H](COCCOCCOCCOCCOCCNc4cccc5c4C(=O)N(C4CCC(=O)NC4=O)C5=O)CC3)cn2)c1 (stereo partly shown) [I-33]	C (<20% degradation)
N#Cc1cnc2c(cnn2-c2cc(NC3CC3)c(C(=O)N[C@H]3C[C@H](COCCOCCOCCNc4cccc5c4C(=O)N(C4CCC(=O)NC4=O)C5=O)C3)cn2)c1 (stereo partly shown) [I-34]	C (<20% degradation)
N#Cc1cnc2c(cnn2-c2cc(NC3CC3)c(C(=O)N[C@H]3CC[C@H](COCCOCCOCCNc4cccc5c4C(=O)N(C4CCC(=O)NC4=O)C5=O)C3)cn2)c1 (stereo partly shown) [I-35]	C (<20% degradation)
N#Cc1cnc2c(cnn2-c2cc(NC3CC3)c(C(=O)N[C@H]3C[C@H](COCCOCCOCCOCCOCCNc4cccc5c4C(=O)N(C4CCC(=O)NC4=O)C5=O)C3)cn2)c1 (stereo partly shown) [I-36]	C (<20% degradation)
CN(CCOCCOCCNc1cccc2c1C(=O)N(C1CCC(=O)NC1=O)C2=O)C(=O)[C@H]1C[C@H](NC(=O)c2cnc(-n3ncc4cc(C#N)cnc43)cc2NC2CC2)C1 (stereo partly shown) [I-37]	C (<20% degradation)
CN(CCOCCOCCOCCOCCNc1cccc2c1C(=O)N(C1CCC(=O)NC1=O)C2=O)C(=O)[C@H]1CC[C@H](NC(=O)c2cnc(-n3ncc4cc(C#N)cnc43)cc2NC2CC2)CC1 (stereo partly shown) [I-38]	C (<20% degradation)
CN(CCOCCOCCOCCOCCNc1cccc2c1C(=O)N(C1CCC(=O)NC1=O)C2=O)C(=O)[C@H]1C[C@H](NC(=O)c2cnc(-n3ncc4cc(C#N)cnc43)cc2NC2CC2)C1 (stereo partly shown) [I-39]	C (<20% degradation)
O=C1CCC(N2C(=O)c3cccc(NCCOCc4ccc(COCCNC(=O)[C@H]5CC[C@H](NC(=O)c6cnc(Nc7ccc8cnccc8n7)cc6NC6CC6)CC5)nc4)c3C2=O)C(=O)N1 (stereo partly shown) [I-41, 6-((1,6-naphthyridin-2-yl)amino)-4-(cyclopropylamino)-N-((1r,4r)-4-((2-((5-((2-((2-(2,6-dioxopiperidin-3-yl)-1,3-dioxoisoindolin-4-yl)amino)ethoxy)methyl)pyridin-2-yl)methoxy)ethyl)carbamoyl)cyclohexyl)nicotinamide]	C (<20% degradation)
CN(CCOCCOCCNc1cccc2c1C(=O)N(C1CCC(=O)NC1=O)C2=O)C(=O)[C@H]1CC[C@H](NC(=O)c2cnc(-n3ncc4cc(C#N)cnc43)cc2NC2CC2)CC1 (stereo partly shown) [I-42, 6-(5-cyano-1H-pyrazolo[3,4-b]pyridin-1-yl)-4-(cyclopropylamino)-N-((1r,4r)-4-((2-(2-(2-((2-(2,6-dioxopiperidin-3-yl)-1,3-dioxoisoindolin-4-yl)amino)ethoxy)ethoxy)ethyl) (methyl)carbamoyl)cyclohexyl)nicotinamide]	C (<20% degradation)
CN(CCOCCOCCNc1cccc2c1C(=O)N(C1CCC(=O)NC1=O)C2=O)C(=O)[C@H]1C[C@H](NC(=O)c2cnc(Nc3ccc4cnccc4n3)cc2NC2CC2)C1 (stereo partly shown) [I-44, 6-((1,6-naphthyridin-2-yl)amino)-4-(cyclopropylamino)-N-((1r,3r)-3-((2-(2-(2-((2-(2,6-dioxopiperidin-3-yl)-1,3-dioxoisoindolin-4-yl)amino)ethoxy)ethoxy)ethyl)(methyl)carbamoyl)cyclobutyl)nicotinamide]	B (>20-50% degradation)
